From ChEMBL document CHEMBL4837196, “Cytotoxic and Antiangiogenetic Xanthones Inhibiting Tumor Proliferation and Metastasis from Garcinia xipshuanbannaensis” (J Nat Prod, 2021)
One block for each molecule: values may come before it. Activity calls are given as the source filed them. The calls are words filed in the database; no cut-off is given here.

Columns and labels:
[1] = system: HeLa; assay: Cytotoxicity against human HeLa cells assessed as inhibition of cell proliferation incubated for 48 hrs by MTT assay; type: functional, cell-based
[2] = system: K562; assay: Cytotoxicity against human K562 cells assessed as inhibition of cell proliferation incubated for 48 hrs by MTT assay; type: functional, cell-based; details: K562, 48 h
[3] = system: HepG2; assay: Cytotoxicity against human HepG2 cells assessed as inhibition of cell proliferation incubated for 48 hrs by MTT assay; type: functional, cell-based; details: HepG2, 48 h
[4] = system: HeLa; assay: Induction of apoptosis in human HeLa cells assessed as necrotic cells at 6 uM measured after 48 hrs by Annexin V-FITC/propidium iodide staining based flow cytometric analysis (reference value: 1.32 %); type: functional
[5] = system: HeLa; assay: Induction of apoptosis in human HeLa cells assessed as viable cells at 6 uM measured after 48 hrs by Annexin V-FITC/propidium iodide staining based flow cytometric analysis (reference value: 83.1 %); type: functional; details: read-out: Activity
[6] = system: HeLa; assay: Induction of apoptosis in human HeLa cells assessed as late apoptotic cells at 6 uM measured after 48 hrs by Annexin V-FITC/propidium iodide staining based flow cytometric analysis (reference value: 12.2 %); type: functional
[7] = system: HeLa; assay: Induction of apoptosis in human HeLa cells assessed as early apoptotic cells at 6 uM measured after 48 hrs by Annexin V-FITC/propidium iodide staining based flow cytometric analysis (reference value: 3.34 %); type: functional
[8] = system: HeLa; assay: Induction of apoptosis in human HeLa cells assessed as necrotic cells at 12 uM measured after 48 hrs by Annexin V-FITC/propidium iodide staining based flow cytometric analysis (reference value: 1.32 %); type: functional
[9] = system: HeLa; assay: Induction of apoptosis in human HeLa cells assessed as viable cells at 12 uM measured after 48 hrs by Annexin V-FITC/propidium iodide staining based flow cytometric analysis (reference value: 83.1 %); type: functional; details: read-out: Activity
[10] = system: HeLa; assay: Induction of apoptosis in human HeLa cells assessed as late apoptotic cells at 12 uM measured after 48 hrs by Annexin V-FITC/propidium iodide staining based flow cytometric analysis (reference value: 12.2 %); type: functional
[11] = system: HeLa; assay: Induction of apoptosis in human HeLa cells assessed as early apoptotic cells at 12 uM measured after 48 hrs by Annexin V-FITC/propidium iodide staining based flow cytometric analysis (reference value: 3.34 %); type: functional
[12] = system: HeLa; assay: Induction of apoptosis in human HeLa cells assessed as necrotic cells at 24 uM measured after 48 hrs by Annexin V-FITC/propidium iodide staining based flow cytometric analysis (reference value: 1.32 %); type: functional
[13] = system: HeLa; assay: Induction of apoptosis in human HeLa cells assessed as viable cells at 24 uM measured after 48 hrs by Annexin V-FITC/propidium iodide staining based flow cytometric analysis (reference value: 83.1 %); type: functional; details: read-out: Activity
[14] = system: HeLa; assay: Induction of apoptosis in human HeLa cells assessed as late apoptotic cells at 24 uM measured after 48 hrs by Annexin V-FITC/propidium iodide staining based flow cytometric analysis (reference value: 12.2 %); type: functional
[15] = system: HeLa; assay: Induction of apoptosis in human HeLa cells assessed as early apoptotic cells at 24 uM measured after 48 hrs by Annexin V-FITC/propidium iodide staining based flow cytometric analysis (reference value: 3.34 %); type: functional
[16] = system: HeLa; assay: Cell cycle arrest in human HeLa cells assessed as accumulation at G0/G1 phase at 6 uM measured after 48 hrs by PI-staining based flow cytometric analysis (reference value: 40.03%); type: functional
[17] = system: HeLa; assay: Cell cycle arrest in human HeLa cells assessed as accumulation at G2 phase at 6 uM measured after 48 hrs by PI-staining based flow cytometric analysis (reference value: 8.58%); type: functional
[18] = system: HeLa; assay: Cell cycle arrest in human HeLa cells assessed as accumulation at S phase at 6 uM measured after 48 hrs by PI-staining based flow cytometric analysis (reference value: 51.39%); type: functional
[19] = system: HeLa; assay: Cell cycle arrest in human HeLa cells assessed as accumulation at G0/G1 phase at 12 uM measured after 48 hrs by PI-staining based flow cytometric analysis (reference value: 40.03%); type: functional
[20] = system: HeLa; assay: Cell cycle arrest in human HeLa cells assessed as accumulation at G2 phase at 12 uM measured after 48 hrs by PI-staining based flow cytometric analysis (reference value: 8.58%); type: functional
[21] = system: HeLa; assay: Cell cycle arrest in human HeLa cells assessed as accumulation at S phase at 12 uM measured after 48 hrs by PI-staining based flow cytometric analysis (reference value: 51.39%); type: functional
[22] = system: HeLa; assay: Cell cycle arrest in human HeLa cells assessed as accumulation at G0/G1 phase at 24 uM measured after 48 hrs by PI-staining based flow cytometric analysis (reference value: 40.03%); type: functional
[23] = system: HeLa; assay: Cell cycle arrest in human HeLa cells assessed as accumulation at G2 phase at 24 uM measured after 48 hrs by PI-staining based flow cytometric analysis (reference value: 8.58%); type: functional
[24] = system: HeLa; assay: Cell cycle arrest in human HeLa cells assessed as accumulation at S phase at 24 uM measured after 48 hrs by PI-staining based flow cytometric analysis (reference value: 51.39%); type: functional
[25] = system: HeLa; assay: Induction of reactive oxygen species generation in human HeLa cells assessed as increase in ROS level at 2.5 to 30 uM measured after 48 hrs by DCFH-DA staining based flow cytometric analysis; type: functional, cell-based; details: dose 2.5-30 µM
[26] = molecular target: Signal transducer and activator of transcription 3 (Homo sapiens) (UniProt P40763); assay: Inhibition of STAT3 phosphorylation in human HeLa cells measured after 12 hrs by western blot analysis; type: cell-based
[27] = molecular target: Signal transducer and activator of transcription 3 (Homo sapiens) (UniProt P40763); assay: Inhibition of STAT3 activation in human HeLa cells measured after 12 hrs by western blot analysis; type: cell-based
[28] = system: HepG2; assay: Antitumour activity against CM-Dil labeled human HepG2 cells xenografted in AB zebrafish embryo assessed as retarded tumor growth measured after 48 hrs by confocal microscopy analysis; type: functional, cell-based; details: dose 12-48 µM
[29] = species: Danio rerio; assay: Antiangiogenesis activity in Tg(fli1:EGFP) transgenic zebrafish embryo assessed as change in intersegmental vessels length at 12 uM measured after 48 hrs by confocal microscopy analysis (reference value: 3233.3 micrometer); type: functional
[30] = species: Danio rerio; assay: Antiangiogenesis activity in Tg(fli1:EGFP) transgenic zebrafish embryo assessed as change in intersegmental vessels length at 24 uM measured after 48 hrs by confocal microscopy analysis (reference value: 3233.3 micrometer); type: functional
[31] = species: Danio rerio; assay: Antiangiogenesis activity in Tg(fli1:EGFP) transgenic zebrafish embryo assessed as change in intersegmental vessels length at 48 uM measured after 48 hrs by confocal microscopy analysis (reference value: 3233.3 micrometer); type: functional
[32] = Effect on STAT3 protein level in human HeLa cells at 6 to 24 uM by Western blotting; type: ADME, cell-based; details: dose 6-24 µM

Chain of Signal transducer and activator of transcription 3 (Homo sapiens) (P40763 whole entry): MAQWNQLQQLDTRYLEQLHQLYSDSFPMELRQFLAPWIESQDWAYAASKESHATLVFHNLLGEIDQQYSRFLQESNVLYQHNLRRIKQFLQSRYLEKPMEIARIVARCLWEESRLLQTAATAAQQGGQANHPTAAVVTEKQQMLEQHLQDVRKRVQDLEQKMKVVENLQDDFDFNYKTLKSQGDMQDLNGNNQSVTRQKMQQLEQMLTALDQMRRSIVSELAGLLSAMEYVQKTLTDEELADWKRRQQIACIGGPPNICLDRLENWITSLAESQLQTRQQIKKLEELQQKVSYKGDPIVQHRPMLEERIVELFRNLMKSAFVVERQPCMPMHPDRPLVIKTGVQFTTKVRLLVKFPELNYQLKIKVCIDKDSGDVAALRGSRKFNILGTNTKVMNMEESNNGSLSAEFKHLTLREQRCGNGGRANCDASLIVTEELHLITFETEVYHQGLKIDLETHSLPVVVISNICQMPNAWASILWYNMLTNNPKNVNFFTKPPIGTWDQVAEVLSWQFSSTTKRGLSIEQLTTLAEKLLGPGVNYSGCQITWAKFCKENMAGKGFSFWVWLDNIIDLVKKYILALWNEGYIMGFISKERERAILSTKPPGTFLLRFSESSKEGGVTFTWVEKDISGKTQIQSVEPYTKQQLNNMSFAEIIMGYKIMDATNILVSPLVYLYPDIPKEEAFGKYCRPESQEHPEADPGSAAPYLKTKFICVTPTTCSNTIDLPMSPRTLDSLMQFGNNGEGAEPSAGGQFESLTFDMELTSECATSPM

inhibition [26]: Active | inhibition [27]: Dose-Dependent Effect
Structure (SMILES): COC(C)(C)CCc1c(O)c(O)cc2oc3c4c(c(CC=C(C)C)c(O)c3c(=O)c12)OC(C)(C)C=C4
IC50 [1]: 9.6 µM | IC50 [2]: > 10 µM | IC50 [3]: > 10 µM | Activity [4]: 1.72% | viability at 6 µM [5]: 75.2% | Activity [6]: 16.1% | Activity [7]: 6.92% | Activity [8]: 2.63% | viability at 12 µM [9]: 71.2% | Activity [10]: 18% | Activity [11]: 8.23% | Activity [12]: 3.76% | viability at 24 µM [13]: 58.1% | Activity [14]: 24% | Activity [15]: 13.6% | Activity [16]: 55.33% | Activity [17]: 6.58% | Activity [18]: 38.09% | Activity [19]: 65.78% | Activity [20]: 4.63% | Activity [21]: 29.59% | Activity [22]: 67.2% | Activity [23]: 1.71% | Activity [24]: 31.09% | Activity [25]: Active | Activity [28]: Dose-Dependent Effect | Activity [29]: 2476.5 um | Activity [30]: 2263.2 um | Activity [31]: 1881.6 um | Activity [32]: Non-Toxic

Structure (SMILES): COc1cc([C@@H]2c3cc4c(cc3[C@@H](O[C@@H]3O[C@@H]5CO[C@@H](C)O[C@H]5[C@H](O)[C@H]3O)[C@H]3COC(=O)[C@H]23)OCO4)cc(OC)c1O
Activity [28]: Dose-Dependent Effect

Structure (SMILES): COC(=O)C[C@](O)(CCCC(C)(C)O)C(=O)O[C@@H]1C(OC)=C[C@]23CCCN2CCc2cc4c(cc2[C@H]13)OCO4 [OMACETAXINE MEPESUCCINATE]
IC50 [1]: 0.4 µM
